Data set [1] can be described thus: Solubility of recoflavone in water and its pH dependence. Format: physicochemical. An excerpt:
(§1) It has a property with low solubility at low pH. As the pH increases, it is ionized and its solubility increases.
In general, an ophthalmic composition is preferably prepared in a transparent solution state in consideration of the feeling of use in eyes and the efficient absorption of the drug. […] Therefore, if recoflavone is not dissolved in purified water for an ophthalmic composition, a transparent solution may be prepared through (S1) step.

Data set [2] is described as follows: Cell permeability of dissolved recoflavone. As to conditions: high degree of ionization. The data set is classed as in vitro ADME.
From the text: as §1

A short description of data set [3]: Drug distribution in each tissue of eye after 3% eye drop administered to rabbit eyes. Format: in vivo. As to conditions: data not shown.
From the text: as §1

A short description of data set [4]: Dissolved state of recoflavone in sodium hydroxide aqueous solution. Format: physicochemical. As for the experimental part: When recoflavone is not dissolved in purified water, in (S1) step, sodium hydroxide as an alkalizing agent is added in an amount of not less than 1.05 which is the ratio of molar concentration to that of recoflavone. Here, the ratio of molar concentration is expressed as a value by dividing the molar concentration of sodium hydroxide by the molar concentration of recoflavone contained in the ophthalmic composition.
Specifically, (S1) step is a process where sodium hydroxide is added to purified water to prepare an aqueous solution having a molar concentration of not more than 0.16 M or not less than 0.19 M, and then recoflavone is added. Recoflavone can be dissolved transparently through the above process.
The molar concentration of sodium hydroxide is calculated in the above dissolving process not in the final volume of the manufacturing process. […] Therefore an ophthalmic composition cannot be prepared efficiently. The corresponding contents will be described in details with reference to Tables 1, 2 and FIG. 9 below.

In data set [5] the test system is human keratoconjunctival epithelial cells. As to conditions: cited from earlier work.
For data set [6] the following is noted: cited from earlier work.
Where [7] appears, read: human keratoconjunctival epithelial cells.

Consider two molecules from patent publication US20250082603A1, “OPHTHALMIC COMPOSITION CONTAINING RECOFLAVONE FOR THE TREATMENT OF DRY EYE DISEASE AND METHOD FOR PREPARING THE SAME” (GL PHARMTECH CORP., priority 2021, published 2025).

Like-named read-outs stand apart in the source and are kept apart here.

As to `COc1ccc(-c2cc(=O)c3c(OC)cc(OCC(=O)O)cc3o2)cc1OC` [recoflavone, 2-((2-(3,4-dimethoxyphenyl)-5-methoxy-4-oxo-4H-chromen-7-yl)oxy) acetic acid], the “solubility at low pH” value in data set [1] (low pH) was “low”. Further, the solubility in water result in data set [1] (water) was “practically insoluble”. In addition, the cell permeability result in data set [2] is “poor”. Also, the “drug concentration in the cornea” value in data set [3] is “high immediately after the administration, but it was rapidly decreased over time”. Besides, the “drug distribution in each tissue of eye with time” value in data set [3] is “rarely distributed in the tissues located inside the eye and mainly distributed in the surrounding tissues outside of the eye”. Moreover, the “Dissolved state of recoflavone” value in data set [4] (NaOH aqueous solution out of the range of not more than 0.16 M or not less than 0.19 M, stirring for several hours) is listed as “not dissolved transparently”; in data set [4] (final volume 40 L, recoflavone 5% (w/v), NaOH 0.196 M, purified water 28,000 mL, ratio 1.05~1.06), “Transparent”; in data set [4] (final volume 70 L, recoflavone 5% (w/v), NaOH 0.196 M, purified water 49,000 mL, ratio 1.05~1.06) it was “Transparent”; in data set [4] (final volume 100 mL, recoflavone 3% (w/v), NaOH 0.086 M, purified water 90 mL, ratio 1.05), “Transparent”; in data set [4] (final volume 100 mL, recoflavone 3% (w/v), NaOH 0.097 M, purified water 80 mL), “Transparent”; in data set [4] (final volume 100 mL, recoflavone 3% (w/v), NaOH 0.111 M, purified water 70 mL), “Transparent”. Further, the “Dissolved state of recoflavone” value in data set [4] (final volume 100 mL, recoflavone 5% (w/v), NaOH 0.137 M, purified water 100 mL, ratio 1.05) was “Transparent”; in data set [4] (final volume 100 mL, recoflavone 5% (w/v), NaOH 0.152 M, purified water 90 mL), “Transparent”; in data set [4] (final volume 100 mL, recoflavone 5% (w/v), NaOH 0.196 M, purified water 70 mL) it was “Transparent”; in data set [4] (final volume 100 mL, recoflavone 5% (w/v), NaOH 0.392 M, purified water 70 mL) it was “Transparent”; in data set [4] (final volume 100 mL, recoflavone 6% (w/v), NaOH 0.204 M, purified water 80 mL) it was “Transparent”; in data set [4] (final volume 100 mL, recoflavone 6% (w/v), NaOH 0.233 M, purified water 70 mL), “Transparent”. Further, the “Dissolved state of recoflavone” value in data set [4] (final volume 100 mL, recoflavone 6% (w/v), NaOH 0.466 M, purified water 70 mL) was “Transparent”; in data set [4] (final volume 100 mL, recoflavone 7% (w/v), NaOH 0.195 M, purified water 100 mL, ratio 1.05), “Transparent”; in data set [4] (final volume 100 mL, recoflavone 7% (w/v), NaOH 0.279 M, purified water 70 mL) it was “Transparent”; in data set [4] (final volume 100 mL, recoflavone 7% (w/v), NaOH 0.558 M, purified water 70 mL), “Transparent”. For the same molecule, the “thickness of the mucin layer” value in data set [5] (100 μM solution) is listed as “significantly increased”. The “MUC1, MUC4, MUC16 and MUC5AC by real-time PCR” value in data set [5] (setting [7]) is “tendency to increase significantly for four hours and then decreased rapidly”. The “mucin proteins by Western blot analysis” value in data set [5] (setting [7]) was “MUC5AC only had a tendency to increase and the others did not”. Besides, the hygroscopicity result is recorded as “stable without hygroscopicity” in data set [6] (form of a hydrate) and “has hygroscopicity” in data set [6] (form of an anhydride).
For the molecule `COc1ccc(-c2cc(=O)c3c(OC)cc(OCC(=O)O)cc3o2)cc1OC` [recoflavone monohydrate], the Dissolved state result is listed as “Not transparent” in data set [4] (molar concentration ratio 0.93, NaOH 0.196 M, recoflavone monohydrate 0.211 M); “Not transparent” in data set [4] (molar concentration ratio 0.97, NaOH 0.196 M, recoflavone monohydrate 0.201 M); “Not transparent” in data set [4] (molar concentration ratio 1.00, NaOH 0.196 M, recoflavone monohydrate 0.196 M); “Transparent” in data set [4] (molar concentration ratio 1.05, NaOH 0.194 M, recoflavone monohydrate 0.184 M); “Transparent” in data set [4] (molar concentration ratio 1.06, NaOH 0.203 M, recoflavone monohydrate 0.192 M).
